Reference: ChEMBL document CHEMBL5532637, “Antimicrobial activity of natural and semi-synthetic carbazole alkaloids” (Eur J Med Chem, 2023)
Values after ≈ are worked out from the molar mass of the structure shown.

Experiments:
Klebsiella pneumoniae [1] = assay: Antibacterial activity against colistin resistant Klebsiella pneumoniae assessed as inhibition of bacterial growth incubated for 24 hrs; assay type: functional
Staphylococcus aureus [2] = assay: Antibacterial activity against methicillin-resistant Staphylococcus aureus assessed as inhibition of bacterial growth incubated for 12 to 36 hrs by broth dilution method; assay type: functional; details: time 12-36 hrs
Enterococcus faecalis = assay: Antibacterial activity against multidrug-resistant Enterococcus faecalis assessed as inhibition of bacterial growth incubated for 12 to 36 hrs by broth dilution method; assay type: functional; details: time 12-36 hrs
Staphylococcus aureus [3] = assay: Antibacterial activity against Staphylococcus aureus ATCC 6538 assessed as inhibition of bacterial growth incubated for 24 hrs by disk diffusion method; assay type: functional
Bacillus subtilis [4] = assay: Antibacterial activity against Bacillus subtilis NRRL B-14819 assessed as inhibition of bacterial growth incubated for 24 hrs by disk diffusion method; assay type: functional
Micrococcus luteus = assay: Antibacterial activity against Micrococcus luteus ATCC 21881 assessed as inhibition of bacterial growth incubated for 24 hrs by disk diffusion method; assay type: functional
Escherichia coli [5] = assay: Antibacterial activity against Escherichia coli ATCC 25922 assessed as inhibition of bacterial growth incubated for 24 hrs by disk diffusion method; assay type: functional
Candida albicans [6] = assay: Antifungal activity against Candida albicans assessed as inhibition of fungal growth incubated for 1 hr by serial plate dilution method; assay type: functional
Staphylococcus aureus [7] = assay: Antibacterial activity against Staphylococcus aureus assessed as inhibition of bacterial growth by two-fold serial dilution assay; assay type: functional
Staphylococcus aureus [8] = assay: Antibacterial activity against Staphylococcus aureus ATCC 29213 assessed as inhibition of bacterial growth by two-fold serial dilution assay; assay type: functional
Staphylococcus aureus [9] = assay: Antibacterial activity against methicillin-resistant Staphylococcus aureus assessed as inhibition of bacterial growth by two-fold serial dilution assay; assay type: functional
Staphylococcus aureus [10] = assay: Antibacterial activity against Staphylococcus aureus ATCC 25923 assessed as inhibition of bacterial growth by two-fold serial dilution assay; assay type: functional
Staphylococcus aureus [11] = assay: Antibacterial activity against Staphylococcus aureus ATCC 25923 assessed as inhibition of bacterial growth incubated for 24 hrs by broth dilution assay; assay type: functional
Staphylococcus aureus [12] = assay: Antibacterial activity against methicillin-resistant Staphylococcus aureus clinical isolate assessed as inhibition of bacterial growth incubated for 24 hrs by broth dilution assay; assay type: functional
Staphylococcus aureus [13] = assay: Antimicrobial activity against Staphylococcus aureus ATCC 6538 assessed as inhibition of microbial growth by microbroth dilution method; assay type: functional
Klebsiella pneumoniae [14] = assay: Antimicrobial activity against Klebsiella pneumoniae ATCC 4352 assessed as inhibition of microbial growth by microbroth dilution method; assay type: functional
Candida albicans [15] = assay: Antimicrobial activity against Candida albicans ATCC 10231 assessed as inhibition of microbial growth by microbroth dilution method; assay type: functional
Escherichia coli [16] = assay: Antibacterial activity against Escherichia coli assessed as inhibition of bacterial growth incubated for 18 to 24 hrs by broth macrodilution assay; assay type: functional; details: time 18-24 hrs
Pseudomonas aeruginosa = assay: Antibacterial activity against Pseudomonas aeruginosa assessed as inhibition of bacterial growth incubated for 18 to 24 hrs by broth macrodilution assay; assay type: functional; details: time 18-24 hrs
Salmonella typhi = assay: Antibacterial activity against Salmonella typhi assessed as inhibition of bacterial growth incubated for 18 to 24 hrs by broth macrodilution assay; assay type: functional, Salmonella enterica subsp. enterica serovar Typhi; details: Salmonella enterica; time 18-24 hrs
Candida albicans [17] = assay: Antifungal activity against Candida albicans ATCC 10231 assessed as inhibition of fungal growth incubated for 24 hrs by broth dilution method; assay type: functional
Nakaseomyces glabratus = assay: Antifungal activity against Candida glabrata DSM 11226 assessed as inhibition of fungal growth incubated for 24 hrs by broth dilution method; assay type: functional
Pichia kudriavzevii = assay: Antifungal activity against Candida krusei DSM 6128 assessed as inhibition of fungal growth incubated for 24 hrs by broth dilution method; assay type: functional
Staphylococcus aureus [18] = assay: Antibacterial activity against methicillin-resistant Staphylococcus aureus N315 assessed as inhibition of bacterial growth by micro broth dilution method; assay type: functional
Escherichia coli [19] = assay: Antibacterial activity against Escherichia coli assessed as inhibition of bacterial growth by micro broth dilution method; assay type: functional
Staphylococcus aureus [20] = assay: Antimicrobial activity against Staphylococcus aureus assessed as zone of inhibition at 40 ug/ml; assay type: functional; details: read-out: IZ
Bacillus subtilis [21] = assay: Antimicrobial activity against Bacillus subtilis assessed as zone of inhibition at 40 ug/ml; assay type: functional; details: read-out: IZ
Klebsiella pneumoniae [22] = assay: Antimicrobial activity against Klebsiella pneumoniae assessed as zone of inhibition at 40 ug/ml; assay type: functional; details: read-out: IZ
Escherichia coli [23] = assay: Antimicrobial activity against Escherichia coli assessed as zone of inhibition at 40 ug/ml; assay type: functional; details: read-out: IZ
Aspergillus niger = assay: Antimicrobial activity against Aspergillus niger assessed as zone of inhibition at 50 ug/ml; assay type: functional; details: read-out: IZ
Aspergillus flavus = assay: Antimicrobial activity against Aspergillus flavus assessed as zone of inhibition at 50 ug/ml; assay type: functional; details: read-out: IZ
Fusarium oxysporum = assay: Antimicrobial activity against Fusarium oxysporum assessed as zone of inhibition at 50 ug/ml; assay type: functional; details: read-out: IZ
Staphylococcus aureus [24] = assay: Antibacterial activity against Staphylococcus aureus ATCC 6538 assessed as inhibition of bacterial growth incubated for 24 hrs by alamar blue assay; assay type: functional
[25] = system: Staphylococcus epidermidis; assay: Antibacterial activity against Staphylococcus epidermidis ATCC 12228 assessed as inhibition of bacterial growth incubated for 24 hrs by alamar blue assay; assay type: functional

CCn1c2ccccc2c2c3[nH]c(C(=O)NNC(=O)c4ccc([N+](=O)[O-])cc4)cc3ccc21
MIC (Klebsiella pneumoniae [1]): 64 µg/mL (≈ 145 µM)

Oc1cc(-c2ccc3c(c2)[nH]c2ccccc23)cc(O)c1O
MIC (Staphylococcus aureus [2]): 3.13 µg/mL (≈ 10.7 µM)
MIC (Enterococcus faecalis): 6.25 µg/mL (≈ 21.5 µM)

CC1=NN(c2ccccc2)C(=O)/C1=N\NNC(=O)Cn1c2ccccc2c2ccccc21
MIC (Staphylococcus aureus [3]): 1.1 µg/mL (≈ 2.59 µM)
MIC (Bacillus subtilis [4]): 1.2 µg/mL (≈ 2.83 µM)
MIC (Micrococcus luteus): 3.1 µg/mL (≈ 7.3 µM)
MIC (Escherichia coli [5]): 6.4 µg/mL (≈ 15.1 µM)
MIC (Candida albicans [6]): 9.6 µg/mL (≈ 22.6 µM)

Sc1nnc(Cn2c3ccc(Br)cc3c3cc(Br)ccc32)o1
MIC (Staphylococcus aureus [7]): 0.6 µM (≈ 0.263 µg/mL)
MIC (Staphylococcus aureus [8]): 0.6 µM (≈ 0.263 µg/mL)
MIC (Staphylococcus aureus [9]): 0.6 µM (≈ 0.263 µg/mL)
MIC (Staphylococcus aureus [10]): 0.6 µM (≈ 0.263 µg/mL)

CCn1c2ccccc2c2c(Cl)c(N/N=C(/C(C)=O)N3CCN(CCO)CC3)ccc21
MIC (Staphylococcus aureus [11]): 3.12 µg/mL (≈ 7.07 µM)
MIC (Staphylococcus aureus [12]): 1.56 µg/mL (≈ 3.53 µM)

Oc1c(/C=N/c2ccc(Cl)cc2Cl)ccc2[nH]c3ccccc3c12
MIC (Staphylococcus aureus [13]): 1.4 µg/mL
MIC (Klebsiella pneumoniae [14]): 1.4 µg/mL
MIC (Candida albicans [15]): 1.4 µg/mL

CCOC(=O)C1=C(C)NC2=C(C(=O)CC(C)(C)C2)C1c1ccc2c(c1)c1ccccc1n2CC (centres undefined)
MIC (Escherichia coli [16]): 16 µg/mL (≈ 35 µM)
MIC (Pseudomonas aeruginosa): 16 µg/mL (≈ 35 µM)
MIC (Salmonella typhi): 16 µg/mL (≈ 35 µM)

CNc1nc(Nc2ccc3[nH]c4ccc(Nc5cnc(N)c(NC)n5)cc4c3c2)cnc1N
MIC (Candida albicans [17]): 250 µg/mL (≈ 566 µM)
MIC (Nakaseomyces glabratus): 62.5 µg/mL (≈ 142 µM)
MIC (Pichia kudriavzevii): 31.2 µg/mL (≈ 70.8 µM)

Cn1c(=O)c2ncn(CC(O)Cn3c4ccccc4c4cc(Br)ccc43)c2n(C)c1=O (centres undefined)
MIC (Staphylococcus aureus [18]): 8 µM (≈ 3.86 µg/mL)
MIC (Escherichia coli [19]): 33 µM (≈ 15.9 µg/mL)

CCn1c2ccccc2c2cc(/C=C/C(=O)c3cc(Cl)cc(Cl)c3OCc3cn(Cc4ccccc4)nn3)ccc21
zone of inhibition at 40 µg/mL (Staphylococcus aureus [20]): 21.4 mm
zone of inhibition at 40 µg/mL (Bacillus subtilis [21]): 24.2 mm
zone of inhibition at 40 µg/mL (Klebsiella pneumoniae [22]): 23.6 mm
zone of inhibition at 40 µg/mL (Escherichia coli [23]): 26.4 mm
zone of inhibition at 50 µg/mL (Aspergillus niger): 15 mm
zone of inhibition at 50 µg/mL (Aspergillus flavus): 12.9 mm
zone of inhibition at 50 µg/mL (Fusarium oxysporum): 15.3 mm

COc1ccccc1OCCNCC(O)COc1cccc2[nH]c3ccccc3c12 (centres undefined) [CARVEDILOL]
MIC (Staphylococcus aureus [24]): 40 µg/mL (≈ 98.4 µM)
MIC [25]: 40 µg/mL (≈ 98.4 µM)
